The values below come from patent US8193189B2, “Quinoxaline derivatives as tyrosine kinase activity inhibitors” (Novartis AG, priority 2007, dated 2012).

Where only a bound is given, the exact number is not on record here.

Assay type in all cases: biochemical
For one assay, the target named is T1, GST-JAK3(811-1124) (Homo sapiens, UniProt P52333).
T1 construct: GST-JAK3(811-1124); made in house
Nature of the assay: EPK JAK-family kinases profiling assay (Caliper mobility shift), JAK3. Conditions: ATP 80 μM, 6 nM kinase. The source says: (§1) All four kinases of the JAK-family kinases were used as purified recombinant GST-fusion proteins, containing the active kinase domains. GST-JAK1(866-1154), GST-JAK3(811-1124), and GST-TYK2(888-1187) were expressed and purified by affinity chromatography at the EPK biology unit. GST-JAK2(808-1132) was purchased from Invitrogen (Carlsbad, USA, #4288).
(§2) The kinase assays were based on the Caliper mobility shift assay using the LabChip 3000 systems. This technology is similar to capillary electrophoresis and uses charge driven separation of substrate and product in a microfluidic chip.
(§3) All kinase reactions were performed in 384 well microtiter plates in a total reaction volume of 18 μl. The assay plates were prepared with 0.1 μl per well of test compound in the appropriate test concentration, as described under the section “preparation of compound dilutions”. The reactions were started by combining 9 μl of substrate mix (consisting of peptide and ATP) with 9 μl of kinase dilution. The reactions were incubated for 60 minutes at 30° C. and stopped by adding 70 μl of stop buffer (100 mM Hepes, 5% DMSO, 0.1% Coating reagent, 10 mM EDTA, 0.015% Brij 35).
(§4) Fluorescently labeled synthetic peptides were used as substrates in all reactions. […] Specific assay conditions are described in Table 1:
(§5) The terminated reactions were transferred to the Caliper LabChip 3000 reader and the turnover of each reaction was measured by determining the substrate/product ratio.
(§6) Test compounds were dissolved in DMSO (10 mM) and transferred into 1.4 mL flat bottom or V-shaped Matrix tubes carrying a unique 2D matrix chip by individual compound hubs. The numbers of these chips were distinctively linked to the individual compound identification numbers. The stock solutions were stored at −20° C. if not used immediately. For the test procedure the vials were defrosted and identified by a scanner whereby a working sheet was generated that guided the subsequent working steps.
(§7) Compound dilutions were made in 96 well plates. This format enabled the assay of maximally 40 individual test compounds at 8 concentrations (single points) including 4 reference compounds. The dilution protocol included the production of pre-dilution plates, master plates and assay plates:
(§8) Pre-dilution plates: 96 polypropylene well plates were used as pre-dilution plates. A total of 4 pre-dilution plates were prepared including 10 test compounds each on the plate positions A1-A10, one standard compound at A11 and one DMSO control at A12. All dilution steps were done on a HamiltonSTAR robot.
(§9) Master plates: 100 μL of individual compound dilutions including standard compound and controls of the 4 “pre-dilution plates” were transferred into a 384 “master plate” including the following concentrations 1′820, 564, 182, 54.6, 18.2, 5.46, 1.82 and 0.546 μM, respectively in 90% of DMSO.
(§10) Assay plates: Identical assay plates were then prepared by pipetting 100 nL each of compound dilutions of the master plates into 384-well “assay plates”. […] The preparation of the master plates were handled by the Matrix PlateMate Plus robot and replication of assay plates by the HummingBird robot.

The target of the next assay is T2, GST-JAK2(808-1132) (Homo sapiens, UniProt O60674).
T2 construct: GST-JAK2(808-1132); purchased Invitrogen (Carlsbad, USA) #4288
Kind of assay: EPK JAK-family kinases profiling assay (Caliper mobility shift), JAK2. Particulars: ATP 20 μM, 1.8 nM kinase.
Source text: as §1, §2, §3, §4, §5, §6, §7, §8, §9, §10

In another assay the target is T3, GST-JAK1(866-1154) (Homo sapiens, UniProt P23458).
T3 construct: GST-JAK1(866-1154); made in house
Nature of the assay: EPK JAK-family kinases profiling assay (Caliper mobility shift), JAK1. Conditions: ATP 40 μM, 50 nM kinase.
Source text: as §1, §2, §3, §4, §5, §6, §7, §8, §9, §10

T3 sequence (P23458 866-1154): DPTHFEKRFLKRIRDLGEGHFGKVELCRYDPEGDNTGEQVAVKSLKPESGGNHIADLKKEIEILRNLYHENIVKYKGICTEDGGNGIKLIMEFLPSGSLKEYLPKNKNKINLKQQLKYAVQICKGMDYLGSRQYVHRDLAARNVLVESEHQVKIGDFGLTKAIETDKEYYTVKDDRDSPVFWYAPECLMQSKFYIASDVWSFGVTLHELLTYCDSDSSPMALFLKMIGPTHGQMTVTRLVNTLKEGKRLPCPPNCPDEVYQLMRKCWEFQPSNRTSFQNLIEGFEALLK
T2 sequence (O60674 808-1132): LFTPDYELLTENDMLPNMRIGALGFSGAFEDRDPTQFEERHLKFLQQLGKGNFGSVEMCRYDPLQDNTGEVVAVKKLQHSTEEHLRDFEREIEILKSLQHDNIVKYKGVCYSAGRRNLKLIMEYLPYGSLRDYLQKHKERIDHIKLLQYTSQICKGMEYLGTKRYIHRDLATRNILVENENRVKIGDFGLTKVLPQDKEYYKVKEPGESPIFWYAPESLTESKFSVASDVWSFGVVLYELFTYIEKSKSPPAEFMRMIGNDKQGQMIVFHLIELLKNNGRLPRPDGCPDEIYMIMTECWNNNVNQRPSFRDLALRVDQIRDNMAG
T1 sequence (P52333 811-1124): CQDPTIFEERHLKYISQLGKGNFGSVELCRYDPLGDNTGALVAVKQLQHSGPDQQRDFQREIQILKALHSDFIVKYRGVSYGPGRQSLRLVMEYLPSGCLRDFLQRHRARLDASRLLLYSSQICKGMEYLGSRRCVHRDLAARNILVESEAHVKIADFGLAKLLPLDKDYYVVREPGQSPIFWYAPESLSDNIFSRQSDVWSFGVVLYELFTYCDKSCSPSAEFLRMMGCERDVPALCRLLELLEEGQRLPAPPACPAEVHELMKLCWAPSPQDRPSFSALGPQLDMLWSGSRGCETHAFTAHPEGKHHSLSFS

For the compound `COc1cc(-c2cnc3cccc(-c4ccc(S(N)(=O)=O)cc4)c3n2)cc(OC)c1OC` [Example 5, 4-[3-(3,4,5-Trimethoxy-phenyl)-quinoxalin-5-yl]-benzenesulfonamide], the IC50 on GST-JAK3(811-1124) was greater than 10 µM; at GST-JAK2(808-1132), 0.11 µM.

Consider `COc1ccc(-c2cnc3cccc(-c4ccc(S(C)(=O)=O)cc4)c3n2)cc1OC` [Example 23, 2-(3,4-Dimethoxy-phenyl)-8-(4-methanesulfonyl-phenyl)-quinoxaline], for which the IC50 was greater than 10 µM on GST-JAK3(811-1124) and 0.2 µM at GST-JAK2(808-1132).

Take `COc1cc(-c2cnc3cccc(-c4ccc(S(=O)(=O)C(C)C)cc4)c3n2)cc(OC)c1OC` [Example 4, 8-[4-(Propane-2-sulfonyl)-phenyl]-2-(3,4,5-trimethoxy-phenyl)-quinoxaline]: the IC50 is greater than 10 µM on GST-JAK3(811-1124) and 0.22 µM on GST-JAK2(808-1132).

With `COc1cc(-c2cnc3cccc(-c4ccc(C(=O)N5CCOCC5)c(C)c4)c3n2)cc(OC)c1OC` [Example 16, {2-Methyl-4-[3-(3,4,5-trimethoxy-phenyl)-quinoxalin-5-yl]-phenyl}-morpholin-4-yl-methanone], the IC50 at GST-JAK2(808-1132) was 0.019 µM.

For `COc1cc(-c2cnc3cccc(-c4ccc(CN5CCOCC5)c(F)c4)c3n2)cc(OC)c1OC` [Example 20, 8-(3-Fluoro-4-morpholin-4-ylmethyl-phenyl)-2-(3,4,5-trimethoxy-phenyl)-quinoxaline], the IC50 at GST-JAK1(866-1154) was 0.16 µM; at GST-JAK2(808-1132) it was 0.024 µM.

Regarding `COc1cc(-c2cnc3cccc(-c4ccc(CC(=O)N5CCOCC5)cc4)c3n2)cc(OC)c1OC` [Example 11, 1-Morpholin-4-yl-2-{4-[3-(3,4,5-trimethoxy-phenyl)-quinoxalin-5-yl]-phenyl}-ethanone], the IC50 came out at 0.039 µM on GST-JAK1(866-1154) and 0.009 µM on GST-JAK2(808-1132).

In the case of `COc1cc(-c2cnc3cc(C)cc(-c4ccc(C(=O)N5CCOCC5)cc4)c3n2)cc(OC)c1OC` [Example 79, {4-[7-Methyl-3-(3,4,5-trimethoxy-phenyl)-quinoxalin-5-yl]-phenyl}-morpholin-4-yl-methanone], the figures for the IC50 on GST-JAK3(811-1124) and at GST-JAK2(808-1132) were greater than 10 µM and 0.52 µM, respectively.

As for `CNC(=O)c1ccc(-c2cccc3ncc(-c4cc(OC)c(OC)c(OC)c4)nc23)cc1` [Example 9, N-Methyl-4-[3-(3,4,5-trimethoxy-phenyl)-quinoxalin-5-yl]-benzamide], the IC50 was greater than 10 µM at GST-JAK3(811-1124) and 0.17 µM at GST-JAK2(808-1132).

With `CS(=O)(=O)Nc1cccc(-c2cnc3cccc(-c4ccc(CC(=O)N5CCOCC5)cc4)c3n2)c1` [Example 38, N-(3-{8-[4-(2-Morpholin-4-yl-2-oxo-ethyl)-phenyl]-quinoxalin-2-yl}-phenyl)-methanesulfonamide], the values for the IC50 on GST-JAK3(811-1124) and on GST-JAK2(808-1132) were 4.2 µM and 0.023 µM, respectively.

On to `COc1cc(-c2cnc3cccc(-c4ccc(S(C)(=O)=O)cc4)c3n2)cc(OC)c1OC` [Example 2, 8-(4-Methanesulfonyl-phenyl)-2-(3,4,5-trimethoxy-phenyl)-quinoxaline], for which the figures for the IC50 at GST-JAK3(811-1124) and at GST-JAK2(808-1132) were 5.4 µM and 0.12 µM, respectively.

For the compound `COc1cc(-c2cnc3cccc(-c4ccc(CN5CCOCC5)c(C)c4)c3n2)cc(OC)c1OC` [Example 21, 8-(3-Methyl-4-morpholin-4-ylmethyl-phenyl)-2-(3,4,5-trimethoxy-phenyl)-quinoxaline], the 50% inhibitory concentration (IC50) at GST-JAK1(866-1154) was 1.8 µM.

For the compound `CCS(=O)(=O)c1ccc(-c2cccc3ncc(-c4ccc(O)c(OC)c4)nc23)cc1` [Example 77, 4-[8-(4-Ethanesulfonyl-phenyl)-quinoxalin-2-yl]-2-methoxy-phenol], the IC50 is 9.8 µM on GST-JAK3(811-1124) and 0.13 µM at GST-JAK2(808-1132).

As to `CCNS(=O)(=O)c1ccc(-c2cccc3ncc(-c4cc(OC)c(OC)c(OC)c4)nc23)cc1` [Example 7, N-Ethyl-4-[3-(3,4,5-trimethoxy-phenyl)-quinoxalin-5-yl]-benzenesulfonamide], the IC50 came out at 8.42 µM at GST-JAK3(811-1124) and 0.095 µM at GST-JAK2(808-1132).

Take `COc1cc(-c2cnc3cccc(-c4ccc(C(=O)N5CCOCC5)cc4F)c3n2)cc(OC)c1OC` [Example 1, {3-Fluoro-4-[3-(3,4,5-trimethoxy-phenyl)-quinoxalin-5-yl]-phenyl}-morpholin-4-yl-methanone]: the IC50 at GST-JAK3(811-1124) is 4.4 µM; at GST-JAK2(808-1132) it was 0.082 µM.

On to `COc1cc(-c2cnc3cccc(-c4ccc(NS(C)(=O)=O)cc4)c3n2)cc(OC)c1OC` [Example 12, N-{4-[3-(3,4,5-Trimethoxy-phenyl)-quinoxalin-5-yl]-phenyl}-methanesulfonamide], for which the values for the IC50 at GST-JAK1(866-1154), on GST-JAK3(811-1124) and on GST-JAK2(808-1132) were 0.18 µM, greater than 10 µM and 0.0525 µM, respectively.

In the case of `COc1cc(-c2cnc3cccc(-c4ccc(CN5CCOCC5)cc4)c3n2)cc(OC)c1OC` [Example 15, 8-(4-Morpholin-4-ylmethyl-phenyl)-2-(3,4,5-trimethoxy-phenyl)-quinoxaline], on GST-JAK3(811-1124), the IC50 was greater than 10 µM.

`COc1cc(-c2cnc3cccc(-c4ccc(S(=O)(=O)N(C)C)cc4)c3n2)cc(OC)c1OC` [Example 8, N,N-Dimethyl-4-[3-(3,4,5-trimethoxy-phenyl)-quinoxalin-5-yl]-benzenesulfonamide]: the IC50 at GST-JAK3(811-1124) is greater than 10 µM; on GST-JAK2(808-1132), 0.11 µM.

`CCS(=O)(=O)c1ccc(-c2cccc3ncc(-c4ccc(OCCOC)c(OC)c4)nc23)cc1` [Example 47]: the IC50 at GST-JAK3(811-1124) was greater than 10 µM; at GST-JAK2(808-1132), 0.038 µM.

In the case of `CCS(=O)(=O)c1ccc(-c2cccc3ncc(-c4cccc(NS(C)(=O)=O)c4)nc23)cc1` [Example 39, N-{3-[8-(4-Ethanesulfonyl-phenyl)-quinoxalin-2-yl]-phenyl}-methanesulfonamide], the IC50 at GST-JAK3(811-1124) was greater than 10 µM; on GST-JAK2(808-1132), 0.19 µM.

Regarding `COc1cc(-c2cnc3cccc(-c4ccc(CN5CCS(=O)(=O)CC5)cc4)c3n2)cc(OC)c1OC` [Example 19, 8-[4-(1,1-Dioxido-thiomorpholin-4-ylmethyl)-phenyl]-2-(3,4,5-trimethoxy-phenyl)-quinoxaline], the IC50 at GST-JAK1(866-1154) is 0.059 µM.
